Assay results reported in paper PMC3077032 (Clinical cancer research : an official journal of the …, 2011).
Read-outs that look alike come from different tables or passages of the source.

Legend:
[1] = in vivo
[2] = clinical; conditions: human, plasma (sorafenib); sample for sirolimus not named, oral
[3] = cited from earlier work
[4] = for AUC, median relative difference (range) after initiation of combination therapy / Cmax, median relative difference (range) after initiation of combination therapy: combination with the interacting drug vs drug alone, n=6; for Ka, population estimate: one-compartment NONMEM model, n = 6 per drug
[5] = day 28 combination vs day 14 alone
[6] = test system: CYP3A4; conditions: cited from earlier work
[7] = daily oral dosing, phase I trial in cancer patients

SMILES | AUC, median relative difference (range) after initiation of combination therapy [1] | Vd/F [2] [L] | Dose well tolerated [3, 7] [mg] | Maximum tolerated dose [3, 7] [mg] | Dose administered without dose limiting toxicity ([3]; weekly dosing, ongoing study at the University of Chicago) [mg] | AUC, median relative difference (range) after initiation of combination therapy [4] | Cmax, median relative difference (range) after initiation of combination therapy [4] [%] | Cmax, median relative difference (range) after initiation of combination therapy ([4]; listed as Sirolimus) | Ka, population estimate [4] [h⁻¹] | AUC, median relative difference (range) after initiation of combination therapy [5] | Cmax, median relative difference (range) after initiation of combination therapy [5] [%] | Cmax, median relative difference (range) after initiation of combination therapy ([5]; listed as Sirolimus) | Effect of inhibitors of CYP3A4 on pharmacokinetics [6] | Cmax, median relative difference (range) after initiation of combination therapy ([4]; listed as Sorafenib) | Cmax, median relative difference (range) after initiation of combination therapy ([5]; listed as Sunitinib)
CCNCCNC(=O)c1c(C)[nH]c(/C=C2\C(=O)Nc3ccc(F)cc32)c1C [SU12662] | 61.6 (−79.7, 1031.2) % |  |  |  |  |  |  |  |  |  |  |  |  |  | 
CO[C@H]1C[C@@H]2CC[C@@H](C)[C@@](O)(O2)C(=O)C(=O)N2CCCC[C@H]2C(=O)O[C@H]([C@H](C)C[C@@H]2CC[C@@H](O)[C@H](OC)C2)CC(=O)[C@H](C)/C=C(\C)[C@@H](O)[C@@H](OC)C(=O)[C@H](C)C[C@H](C)/C=C/C=C/C=C/1C [sirolimus, Sirolimus] |  | 138 | 3 | 6 | 90 | 43.7 (10.5, 84.7) % | 3.9 | 3.9 (1.3, 11.0) % | 2.01 | −47.7 (−75.4, 1394.8) % | −29.8 | −29.8 (−77.4, 28.8) % |  |  | 
CNC(=O)c1cc(Oc2ccc(NC(=O)Nc3ccc(Cl)c(C(F)(F)F)c3)cc2)ccn1 [sorafenib, Sorafenib] |  | 807 |  |  |  | 6.1 (−17.3, 22.0) % | −40.7 |  | 1.07 |  |  |  | only modestly affected | −40.7 (−87.0, 351.2) % | 
CCN(CC)CCNC(=O)c1c(C)[nH]c(/C=C2\C(=O)Nc3ccc(F)cc32)c1C [sunitinib, Sunitinib] |  |  |  |  |  |  |  |  |  | 54.3 (−34.3, 232.8) % | 19.6 |  | only modestly affected |  | 19.6 (−23.5, 45.4) %
